Reference: patent US20070049593A1 (priority 2004, published 2007)
Structures can show the parent of a compound that is named as a salt.

Target: T1, HCV polymerase (Hepatitis C virus genotype 1b, UniProt P26663)
T1 construct: a region encoding NS5B (J Virol 1991 March, 65(3), 1105-13, 544 amino acids after deletion of 47 amino acids on the C-terminal); 6xHis (C); made in house; host or cells: Escherichia coli
Experiment: biochemical
Set-up: species or system HCV BK strain
Method in brief: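 Recombinant HCV BK-strain NS5B (C-terminal 47 aa deleted, His6-tagged, E. coli), 0.5 μg/ml, run with 5 μg/ml in vitro-transcribed RNA template (polyU/3′X), ATP/GTP/CTP 50 μM, UTP 2 μM plus [3H]UTP, pH 7.5, 25° C, 90 min. TCA-precipitated RNA counted by scintillation; IC50 from activity with vs without compound.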

T1 sequence (P26663 2420-2963): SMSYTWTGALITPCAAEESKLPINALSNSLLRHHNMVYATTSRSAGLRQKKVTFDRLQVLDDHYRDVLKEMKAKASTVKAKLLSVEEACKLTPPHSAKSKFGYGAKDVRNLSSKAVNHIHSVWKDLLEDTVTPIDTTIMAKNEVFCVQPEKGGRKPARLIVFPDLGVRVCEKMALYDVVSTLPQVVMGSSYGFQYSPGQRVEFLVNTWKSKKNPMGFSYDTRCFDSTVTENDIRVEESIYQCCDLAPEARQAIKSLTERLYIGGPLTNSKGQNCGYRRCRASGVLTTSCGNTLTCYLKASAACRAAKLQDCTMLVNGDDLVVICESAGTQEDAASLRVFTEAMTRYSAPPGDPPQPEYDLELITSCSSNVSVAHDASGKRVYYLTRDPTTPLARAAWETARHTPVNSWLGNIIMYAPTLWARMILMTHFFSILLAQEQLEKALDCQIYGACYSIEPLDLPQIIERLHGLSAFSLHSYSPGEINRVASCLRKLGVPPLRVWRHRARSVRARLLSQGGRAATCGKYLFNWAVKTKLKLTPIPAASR

SMILES | IC50 [nM]
O=C(O)c1ccc2c(C3CCCCC3)c3n(c2c1)CCN(CCCN1CCCCCC1)c1ccccc1-3 [Example 1-194, 5-[3-(azepan-1-yl)propyl]-13-cyclohexyl-6,7-dihydro-5H-benzo[5,6][1,4]diazepino[7,1-a]indole-10-carboxylic acid dihydrochloride] | < 100
O=C(CN1CCn2c(c(C3CCCCC3)c3ccc(C(=O)O)cc32)-c2ccccc21)NC12CC3CC(CC(C3)C1)C2 [Example 1-195, 5-(adamantan-1-ylcarbamoylmethyl)-13-cyclohexyl-6,7-dihydro-5H-benzo[5,6][1,4]diazepino[7,1-a]indole-10-carboxylic acid monohydrochloride] | < 100
O=C(O)c1ccc2c(C3CCCCC3)c3n(c2c1)CCN(CCNC12CC4CC(CC(C4)C1)C2)c1ccccc1-3 [Example 1-196, 5-[2-(adamantan-1-ylamino)ethyl]-13-cyclohexyl-6,7-dihydro-5H-benzo[5,6][1,4]diazepino[7,1-a]indole-10-carboxylic acid dihydrochloride] | < 100
COCC1CCN(CCN2CCn3c(c(C4CCCCC4)c4ccc(C(=O)O)cc43)-c3ccccc32)CC1 [Example 1-197, 13-cyclohexyl-5-[2-(4-methoxymethylpiperidin-1-yl)ethyl]-6,7-dihydro-5H-benzo[5,6][1,4]diazepino[7,1-a]indole-10-carboxylic acid dihydrochloride] | < 100
CCCN(C)CCN1CCn2c(c(C3CCCCC3)c3ccc(C(=O)O)cc32)-c2ccccc21 [Example 1-198, 13-cyclohexyl-5-[2-(N-methyl-N-propylamino)ethyl]-6,7-dihydro-5H-benzo[5,6][1,4]diazepino[7,1-a]indole-10-carboxylic acid dihydrochloride] | < 100
CC1(C)CCN(CCN2CCn3c(c(C4CCCCC4)c4ccc(C(=O)O)cc43)-c3ccccc32)CC1 [Example 1-199, 13-cyclohexyl-5-[2-(4,4-dimethylpiperidin-1-yl)ethyl]-6,7-dihydro-5H-benzo[5,6][1,4]diazepino[7,1-a]indole-10-carboxylic acid dihydrochloride] | < 100
COCC1CCCN(CCN2CCn3c(c(C4CCCCC4)c4ccc(C(=O)O)cc43)-c3ccccc32)C1 (stereo not drawn) [Example 1-200, 13-cyclohexyl-5-[2-(3-methoxymethylpiperidin-1-yl)ethyl]-6,7-dihydro-5H-benzo[5,6][1,4]diazepino[7,1-a]indole-10-carboxylic acid dihydrochloride] | < 100
CN1CCCC(CCN2CCn3c(c(C4CCCCC4)c4ccc(C(=O)O)cc43)-c3ccccc32)C1 (stereo not drawn) [Example 1-201, 13-cyclohexyl-5-[2-(1-methylpiperidin-3-yl)ethyl]-6,7-dihydro-5H-benzo[5,6][1,4]diazepino[7,1-a]indole-10-carboxylic acid dihydrochloride] | < 100
CC(C)N1CCCC(CCN2CCn3c(c(C4CCCCC4)c4ccc(C(=O)O)cc43)-c3ccccc32)C1 (stereo not drawn) [Example 1-202, 13-cyclohexyl-5-[2-(1-isopropylpiperidin-3-yl)ethyl]-6,7-dihydro-5H-benzo[5,6][1,4]diazepino[7,1-a]indole-10-carboxylic acid dihydrochloride] | < 100
O=C(O)c1ccc2c(C3CCCCC3)c3n(c2c1)CC(=O)N(CC(=O)N1CCCCC1)c1ccccc1-3 [Example 1-203, 13-cyclohexyl-6-oxo-5-[2-oxo-2-(piperidin-1-yl)ethyl]-6,7-dihydro-5H-benzo[5,6][1,4]diazepino[7,1-a]indole-10-carboxylic acid] | < 100
CCN1CCN(C(=O)CN2C(=O)Cn3c(c(C4CCCCC4)c4ccc(C(=O)O)cc43)-c3ccccc32)CC1 [Example 1-204, 13-cyclohexyl-5-[2-(4-ethylpiperazin-1-yl)-2-oxoethyl]-6-oxo-6,7-dihydro-5H-benzo[5,6][1,4]diazepino[7,1-a]indole-10-carboxylic acid monohydrochloride] | < 100
O=C(O)c1ccc2c(C3CCCCC3)c3n(c2c1)CCN(CCN1CC=CCC1)c1ccccc1-3 [Example 1-205, 13-cyclohexyl-5-[2-(3,6-dihydro-2H-pyridin-1-yl)ethyl]-6,7-dihydro-5H-benzo[5,6][1,4]diazepino[7,1-a]indole-10-carboxylic acid] | < 100
Cc1cccc2c1N(CCN1CCCCC1)CCn1c-2c(C2CCCCC2)c2ccc(C(=O)O)cc21 [Example 1-206, 13-cyclohexyl-4-methyl-5-[2-(piperidin-1-yl)ethyl]-6,7-dihydro-5H-benzo[5,6][1,4]diazepino[7,1-a]indole-10-carboxylic acid dihydrochloride] | < 100
COC[C@@H]1CCCN1CCN1CCn2c(c(C3CCCCC3)c3ccc(C(=O)O)cc32)-c2ccccc21 [Example 1-207, 13-cyclohexyl-5-[2-((S)-2-methoxymethylpyrrolidin-1-yl)ethyl]-6,7-dihydro-5H-benzo[5,6][1,4]diazepino[7,1-a]indole-10-carboxylic acid dihydrochloride] | < 100
CC1CCCN1CCN1CCn2c(c(C3CCCCC3)c3ccc(C(=O)O)cc32)-c2ccccc21 (stereo not drawn) [Example 1-208, 13-cyclohexyl-5-[2-(2-methylpyrrolidin-1-yl)ethyl]-6,7-dihydro-5H-benzo[5,6][1,4]diazepino[7,1-a]indole-10-carboxylic acid dihydrochloride] | < 100
CC(C)CN(C)CCN1CCn2c(c(C3CCCCC3)c3ccc(C(=O)O)cc32)-c2ccccc21 [Example 1-209, 13-cyclohexyl-5-[2-(N-isobutyl-N-methylamino)ethyl]-6,7-dihydro-5H-benzo[5,6][1,4]diazepino[7,1-a]indole-10-carboxylic acid dihydrochloride] | < 100
O=C(O)c1ccc2c(C3CCCCC3)c3n(c2c1)CC(=O)N(CC(=O)N1CCOCC1)c1ccccc1-3 [Example 1-210, 13-cyclohexyl-5-[2-(morpholin-4-yl)-2-oxoethyl]-6-oxo-6,7-dihydro-5H-benzo[5,6][1,4]diazepino[7,1-a]indole-10-carboxylic acid] | < 100
O=C(O)c1ccc2c(C3CCCCC3)c3n(c2c1)CCN(CCN1CCCCC1)c1cc(OCc2ccccc2)ccc1-3 [Example 1-211, 3-benzyloxy-13-cyclohexyl-5-[2-(piperidin-1-yl)ethyl]-6,7-dihydro-5H-benzo[5,6][1,4]diazepino[7,1-a]indole-10-carboxylic acid dihydrochloride] | < 100
CC(C)N(C)CCN1CCn2c(c(C3CCCCC3)c3ccc(C(=O)O)cc32)-c2ccccc21 [Example 1-212, 13-cyclohexyl-5-[2-(N-isopropyl-N-methylamino)ethyl]-6,7-dihydro-5H-benzo[5,6][1,4]diazepino[7,1-a]indole-10-carboxylic acid dihydrochloride] | < 100
CC1CCCCN1CCN1CCn2c(c(C3CCCCC3)c3ccc(C(=O)O)cc32)-c2ccc(Cl)cc21 (stereo not drawn) [Example 1-213, 3-chloro-13-cyclohexyl-5-[2-(2-methylpiperidin-1-yl)ethyl]-6,7-dihydro-5H-benzo[5,6][1,4]diazepino[7,1-a]indole-10-carboxylic acid dihydrochloride] | < 100
CC1CCCN(CCN2CCn3c(c(C4CCCCC4)c4ccc(C(=O)O)cc43)-c3ccc(Cl)cc32)C1 (stereo not drawn) [Example 1-214, 3-chloro-13-cyclohexyl-5-[2-(3-methylpiperidin-1-yl)ethyl]-6,7-dihydro-5H-benzo[5,6][1,4]diazepino[7,1-a]indole-10-carboxylic acid dihydrochloride] | < 100
CC1CCN(CCN2CCn3c(c(C4CCCCC4)c4ccc(C(=O)O)cc43)-c3ccc(Cl)cc32)CC1 [Example 1-215, 3-chloro-13-cyclohexyl-5-[2-(4-methylpiperidin-1-yl)ethyl]-6,7-dihydro-5H-benzo[5,6][1,4]diazepino[7,1-a]indole-10-carboxylic acid dihydrochloride] | < 100
O=C(O)c1ccc2c(C3CCCCC3)c3n(c2c1)CCN(CCN1CCCC1)c1cc(Cl)ccc1-3 [Example 1-216, 3-chloro-13-cyclohexyl-5-[2-(pyrrolidin-1-yl)ethyl]-6,7-dihydro-5H-benzo[5,6][1,4]diazepino[7,1-a]indole-10-carboxylic acid dihydrochloride] | < 100
O=C(O)c1ccc2c(C3CCCCC3)c3n(c2c1)CCN(CCN1CCCCCC1)c1cc(Cl)ccc1-3 [Example 1-217, 5-[2-(azepan-1-yl)ethyl]-3-chloro-13-cyclohexyl-6,7-dihydro-5H-benzo[5,6][1,4]diazepino[7,1-a]indole-10-carboxylic acid dihydrochloride] | < 100
Cc1ccc2c(c1)N(CCN1CCCCCC1)CCn1c-2c(C2CCCCC2)c2ccc(C(=O)O)cc21 [Example 1-218, 5-[2-(azepan-1-yl)ethyl]-13-cyclohexyl-3-methyl-6,7-dihydro-5H-benzo[5,6][1,4]diazepino[7,1-a]indole-10-carboxylic acid dihydrochloride] | < 100
O=C(O)c1ccc2c(C3CCCCC3)c3n(c2c1)CCN(CCC1CCCNC1)c1cc(Cl)ccc1-3 (stereo not drawn) [Example 1-219, 3-chloro-13-cyclohexyl-5-[2-(piperidin-3-yl)ethyl]-6,7-dihydro-5H-benzo[5,6][1,4]diazepino[7,1-a]indole-10-carboxylic acid dihydrochloride] | < 100
CC1COCCN1CCN1CCn2c(c(C3CCCCC3)c3ccc(C(=O)O)cc32)-c2ccccc21 (stereo not drawn) [Example 1-220, 13-cyclohexyl-5-[2-(3-methylmorpholin-4-yl)ethyl]-6,7-dihydro-5H-benzo[5,6][1,4]diazepino[7,1-a]indole-10-carboxylic acid dihydrochloride] | < 100
